{"source": "patent US11020457B2", "about": "“Compositions and methods for protecting the kidney from ischemia reperfusion injury” (University of Virginia Patent Foundation, priority 2013, dated 2021)", "system": "TKPTS cells", "experiment": "In-vitro hypoxia and re-oxygenation of TKPTS cells, Annexin V/PI flow cytometry", "format": "cell-based, mouse", "conditions": "50 μM hepcidin for 24 hours, 1% hypoxia 6 hours, 6 hours re-oxygenation; p<0.005", "procedure": "A mouse proximal tubule cell line (TKPTS cells, kindly provided by Dr. E. Bello-Reuss, University of Texas Medical Branch, Galveston, Tex.) was used in these studies. The cells were cultured in advanced DMEM/F12 medium supplemented with glutamine, 7.5% FBS and antibiotics. Cells were grown to 80% confluence and maintained at 37° C. in 5% CO2. All experiments were performed in serum free DMEM/F12 medium for a maximum of 24 hours.\nTKPTS cells were subjected to hypoxia using a hypoxic chamber (Stemcell Technologies) for 6 hrs (5% CO2, 1% O2, and 94% N2) followed by re-oxygenation for 6 hrs (5% CO2, 21% 02, and 74% N2). Three culture conditions were set up: 1. Normoxia (which served as the base line control); 2. Hypoxia; and 3. Cells pretreated with 50 μM hepcidin and subjected to hypoxia. Experiments were carried out in serum free advanced DMEM/F12 medium. At the end of re-oxygenation, cells were stained with Annexin V/PI and extent of apoptosis was determined using flow cytometry.\nTo investigate if hepcidin has a direct anti-apoptotic effect on renal tubular epithelial cells, we subjected murine proximal renal tubular cells (TKPTS) to hypoxia-reoxygenation injury in vitro (34). TKPTS cells were first treated with or without 50 μM hepcidin for 24 hours in 5% serum containing medium. After transferring to serum free medium, the cells were then cultured in 1% hypoxia for 6 hours. […]", "note": "Entries after “also recorded” stand apart in the source; their conditions may differ.", "data": [{"substance": "Mouse hepcidin 25 (DTNFPICIFCCKCCNNSQCGICCKT; listed as Mus musculus)", "values": [{"measurement": "Annexin V/PI positive cells (apoptosis/necrosis)", "result": "significantly lower Annexin V/PI staining compared to untreated cells; also recorded: reduced to levels seen under normoxia"}]}]}
